# According to ChEMBL document CHEMBL3632549, “Targeting EGFR/HER2 tyrosine kinases with a new potent series of 6-substituted 4-anilinoquinazoline hybrids: Design, synthesis, kinase assay, cell-based assay, and molecular docking” (Bioorg Med Chem Lett, 2015):
# How the values were obtained:
# [1] = target: Epidermal growth factor receptor (Homo sapiens, UniProt P00533); assay: Inhibition of EGFR (unknown origin) after 120 mins by HotSpot assay
# [2] = target: Receptor tyrosine-protein kinase erbB-2 (Homo sapiens, UniProt P04626); assay: Inhibition of HER2 (unknown origin) after 120 mins by HotSpot assay
# Receptor tyrosine-protein kinase erbB-2, sequence (P04626 whole entry): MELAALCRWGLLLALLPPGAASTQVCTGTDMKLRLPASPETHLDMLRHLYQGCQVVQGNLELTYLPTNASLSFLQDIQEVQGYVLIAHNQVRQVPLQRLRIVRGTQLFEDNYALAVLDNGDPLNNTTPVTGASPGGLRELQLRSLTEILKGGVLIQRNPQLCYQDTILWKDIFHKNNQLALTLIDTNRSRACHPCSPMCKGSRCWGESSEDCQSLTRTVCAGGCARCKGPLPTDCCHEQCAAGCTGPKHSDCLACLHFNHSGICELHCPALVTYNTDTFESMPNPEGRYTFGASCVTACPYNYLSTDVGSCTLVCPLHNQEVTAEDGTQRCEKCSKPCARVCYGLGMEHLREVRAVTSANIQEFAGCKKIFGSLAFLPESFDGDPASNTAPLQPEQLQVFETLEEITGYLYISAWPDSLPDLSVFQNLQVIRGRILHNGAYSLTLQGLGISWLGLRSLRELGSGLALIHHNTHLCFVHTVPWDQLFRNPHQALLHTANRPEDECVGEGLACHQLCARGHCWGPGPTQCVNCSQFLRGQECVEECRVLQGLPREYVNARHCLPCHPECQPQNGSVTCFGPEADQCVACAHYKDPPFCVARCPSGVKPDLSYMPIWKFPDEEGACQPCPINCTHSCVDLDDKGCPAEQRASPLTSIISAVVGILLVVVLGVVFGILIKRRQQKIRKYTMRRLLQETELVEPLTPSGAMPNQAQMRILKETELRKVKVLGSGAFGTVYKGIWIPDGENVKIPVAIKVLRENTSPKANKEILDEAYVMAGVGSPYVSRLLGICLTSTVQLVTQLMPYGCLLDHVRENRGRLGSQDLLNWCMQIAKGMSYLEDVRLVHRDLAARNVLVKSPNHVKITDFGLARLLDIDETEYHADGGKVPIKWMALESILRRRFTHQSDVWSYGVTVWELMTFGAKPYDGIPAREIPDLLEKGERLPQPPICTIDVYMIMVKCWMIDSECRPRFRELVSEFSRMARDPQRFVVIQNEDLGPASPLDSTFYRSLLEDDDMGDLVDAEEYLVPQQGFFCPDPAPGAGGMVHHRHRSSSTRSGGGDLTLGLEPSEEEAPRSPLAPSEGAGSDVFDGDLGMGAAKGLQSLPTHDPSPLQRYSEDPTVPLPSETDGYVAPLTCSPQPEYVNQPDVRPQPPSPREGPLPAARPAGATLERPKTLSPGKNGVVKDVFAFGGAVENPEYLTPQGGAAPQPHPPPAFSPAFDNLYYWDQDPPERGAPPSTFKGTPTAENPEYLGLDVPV
# [3] = test system: BT-474; assay: Cytotoxicity against human BT474 cells expressing HER2 after 72 hrs by Cell Titer Glo assay; assay type: functional; conditions: BT-474, 72 h
# [4] = target: Cyclin-dependent kinase 2 (Homo sapiens, UniProt P24941); assay: Inhibition of CDK2 (unknown origin) after 120 mins by HotSpot assay
# [5] = target: Hepatocyte growth factor receptor (Homo sapiens, UniProt P08581); assay: Inhibition of c-MET (unknown origin) after 120 mins by HotSpot assay
# [6] = target: Focal adhesion kinase 1 (Homo sapiens, UniProt Q05397); assay: Inhibition of FAK (unknown origin) after 120 mins by HotSpot assay
# [7] = target: Fibroblast growth factor receptor 1 (Homo sapiens, UniProt P11362); assay: Inhibition of FGFR1 (unknown origin) after 120 mins by HotSpot assay
# Fibroblast growth factor receptor 1, sequence (P11362 whole entry): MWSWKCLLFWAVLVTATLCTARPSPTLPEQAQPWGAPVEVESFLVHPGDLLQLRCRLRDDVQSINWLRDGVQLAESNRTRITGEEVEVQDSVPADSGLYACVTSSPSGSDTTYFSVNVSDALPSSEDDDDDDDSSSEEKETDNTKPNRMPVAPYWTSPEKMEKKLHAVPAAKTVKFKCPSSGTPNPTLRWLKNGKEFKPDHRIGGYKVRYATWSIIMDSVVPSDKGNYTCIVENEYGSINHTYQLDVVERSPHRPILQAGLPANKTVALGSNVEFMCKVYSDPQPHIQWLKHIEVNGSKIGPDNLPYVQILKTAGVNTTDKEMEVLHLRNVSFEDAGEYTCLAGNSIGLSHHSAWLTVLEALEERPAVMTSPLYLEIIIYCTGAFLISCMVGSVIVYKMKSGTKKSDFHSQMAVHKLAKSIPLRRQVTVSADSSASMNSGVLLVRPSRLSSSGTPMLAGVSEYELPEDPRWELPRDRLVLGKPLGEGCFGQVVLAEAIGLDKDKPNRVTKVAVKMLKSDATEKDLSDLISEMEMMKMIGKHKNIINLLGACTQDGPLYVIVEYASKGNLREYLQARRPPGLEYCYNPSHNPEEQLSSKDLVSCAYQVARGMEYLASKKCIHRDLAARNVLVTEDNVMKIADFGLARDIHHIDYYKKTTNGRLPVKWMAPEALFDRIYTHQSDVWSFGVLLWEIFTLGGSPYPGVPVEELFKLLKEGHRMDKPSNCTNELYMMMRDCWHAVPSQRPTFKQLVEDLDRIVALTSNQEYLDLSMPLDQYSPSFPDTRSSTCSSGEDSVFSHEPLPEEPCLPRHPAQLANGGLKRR
# [8] = target: Insulin-like growth factor 1 receptor (Homo sapiens, UniProt P08069); assay: Inhibition of IGF1R (unknown origin) after 120 mins by HotSpot assay
# [9] = target: Vascular endothelial growth factor receptor 2 (Homo sapiens, UniProt P35968); assay: Inhibition of VEGFR2 (unknown origin) after 120 mins by HotSpot assay
# Vascular endothelial growth factor receptor 2, sequence (P35968 whole entry): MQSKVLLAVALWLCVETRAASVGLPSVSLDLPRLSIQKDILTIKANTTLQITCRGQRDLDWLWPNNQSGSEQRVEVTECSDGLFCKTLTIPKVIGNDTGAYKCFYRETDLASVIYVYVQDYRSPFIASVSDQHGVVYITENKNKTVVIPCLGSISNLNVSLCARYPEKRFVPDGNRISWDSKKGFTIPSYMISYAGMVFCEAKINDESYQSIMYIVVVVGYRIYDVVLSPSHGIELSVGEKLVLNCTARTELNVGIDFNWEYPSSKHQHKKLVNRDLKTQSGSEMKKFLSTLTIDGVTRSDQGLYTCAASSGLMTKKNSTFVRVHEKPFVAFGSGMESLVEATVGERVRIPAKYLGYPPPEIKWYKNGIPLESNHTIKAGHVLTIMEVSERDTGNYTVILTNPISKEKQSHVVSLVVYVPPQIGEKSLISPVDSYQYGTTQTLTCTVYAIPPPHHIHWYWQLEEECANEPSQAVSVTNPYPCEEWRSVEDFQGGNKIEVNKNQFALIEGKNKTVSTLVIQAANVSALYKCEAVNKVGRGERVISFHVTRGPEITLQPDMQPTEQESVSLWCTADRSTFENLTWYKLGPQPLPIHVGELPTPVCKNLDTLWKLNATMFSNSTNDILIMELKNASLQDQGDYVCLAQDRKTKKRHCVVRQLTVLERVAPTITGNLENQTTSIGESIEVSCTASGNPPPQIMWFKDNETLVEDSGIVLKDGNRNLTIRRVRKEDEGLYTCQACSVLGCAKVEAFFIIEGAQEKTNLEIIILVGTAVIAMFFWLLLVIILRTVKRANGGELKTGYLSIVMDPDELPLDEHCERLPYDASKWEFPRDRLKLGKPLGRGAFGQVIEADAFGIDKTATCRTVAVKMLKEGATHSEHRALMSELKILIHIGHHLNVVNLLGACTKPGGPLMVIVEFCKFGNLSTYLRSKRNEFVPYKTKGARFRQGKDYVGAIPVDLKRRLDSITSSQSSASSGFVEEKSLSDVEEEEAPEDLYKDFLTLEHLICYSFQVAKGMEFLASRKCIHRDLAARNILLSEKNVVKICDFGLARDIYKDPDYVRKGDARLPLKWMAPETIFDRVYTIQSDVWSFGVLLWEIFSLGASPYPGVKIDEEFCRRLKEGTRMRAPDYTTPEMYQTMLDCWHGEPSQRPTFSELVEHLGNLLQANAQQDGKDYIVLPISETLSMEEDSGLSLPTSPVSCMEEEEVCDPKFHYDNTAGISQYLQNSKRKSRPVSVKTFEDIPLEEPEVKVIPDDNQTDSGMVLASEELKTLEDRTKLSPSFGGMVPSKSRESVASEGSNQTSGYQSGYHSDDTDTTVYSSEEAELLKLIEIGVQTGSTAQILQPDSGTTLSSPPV
# [10] = target: Tyrosine-protein kinase Lck (Homo sapiens, UniProt P06239); assay: Inhibition of LCK (unknown origin) after 120 mins by HotSpot assay
# [11] = target: Mitogen-activated protein kinase 14 (Homo sapiens, UniProt Q16539); assay: Inhibition of P38a (unknown origin) after 120 mins by HotSpot assay
# Mitogen-activated protein kinase 14, sequence (Q16539 whole entry): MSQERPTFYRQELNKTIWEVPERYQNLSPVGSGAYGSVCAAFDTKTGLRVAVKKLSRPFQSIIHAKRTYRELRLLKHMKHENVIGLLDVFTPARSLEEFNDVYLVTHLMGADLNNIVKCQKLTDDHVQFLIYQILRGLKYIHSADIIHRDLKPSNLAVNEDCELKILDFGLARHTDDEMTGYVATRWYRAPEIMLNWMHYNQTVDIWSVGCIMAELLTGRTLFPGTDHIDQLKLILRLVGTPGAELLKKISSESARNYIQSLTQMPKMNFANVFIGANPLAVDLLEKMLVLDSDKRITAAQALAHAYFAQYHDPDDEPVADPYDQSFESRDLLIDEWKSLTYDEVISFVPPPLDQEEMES
# [12] = target: MAP kinase-activated protein kinase 2 (Homo sapiens, UniProt P49137); assay: Inhibition of MAPKAPK2 (unknown origin) after 120 mins by HotSpot assay
# [13] = Cytotoxicity against human L-132 cells after 48 hrs by MTT assay; assay type: cell-based; conditions: L132, 48 h
# Epidermal growth factor receptor, sequence (P00533 whole entry): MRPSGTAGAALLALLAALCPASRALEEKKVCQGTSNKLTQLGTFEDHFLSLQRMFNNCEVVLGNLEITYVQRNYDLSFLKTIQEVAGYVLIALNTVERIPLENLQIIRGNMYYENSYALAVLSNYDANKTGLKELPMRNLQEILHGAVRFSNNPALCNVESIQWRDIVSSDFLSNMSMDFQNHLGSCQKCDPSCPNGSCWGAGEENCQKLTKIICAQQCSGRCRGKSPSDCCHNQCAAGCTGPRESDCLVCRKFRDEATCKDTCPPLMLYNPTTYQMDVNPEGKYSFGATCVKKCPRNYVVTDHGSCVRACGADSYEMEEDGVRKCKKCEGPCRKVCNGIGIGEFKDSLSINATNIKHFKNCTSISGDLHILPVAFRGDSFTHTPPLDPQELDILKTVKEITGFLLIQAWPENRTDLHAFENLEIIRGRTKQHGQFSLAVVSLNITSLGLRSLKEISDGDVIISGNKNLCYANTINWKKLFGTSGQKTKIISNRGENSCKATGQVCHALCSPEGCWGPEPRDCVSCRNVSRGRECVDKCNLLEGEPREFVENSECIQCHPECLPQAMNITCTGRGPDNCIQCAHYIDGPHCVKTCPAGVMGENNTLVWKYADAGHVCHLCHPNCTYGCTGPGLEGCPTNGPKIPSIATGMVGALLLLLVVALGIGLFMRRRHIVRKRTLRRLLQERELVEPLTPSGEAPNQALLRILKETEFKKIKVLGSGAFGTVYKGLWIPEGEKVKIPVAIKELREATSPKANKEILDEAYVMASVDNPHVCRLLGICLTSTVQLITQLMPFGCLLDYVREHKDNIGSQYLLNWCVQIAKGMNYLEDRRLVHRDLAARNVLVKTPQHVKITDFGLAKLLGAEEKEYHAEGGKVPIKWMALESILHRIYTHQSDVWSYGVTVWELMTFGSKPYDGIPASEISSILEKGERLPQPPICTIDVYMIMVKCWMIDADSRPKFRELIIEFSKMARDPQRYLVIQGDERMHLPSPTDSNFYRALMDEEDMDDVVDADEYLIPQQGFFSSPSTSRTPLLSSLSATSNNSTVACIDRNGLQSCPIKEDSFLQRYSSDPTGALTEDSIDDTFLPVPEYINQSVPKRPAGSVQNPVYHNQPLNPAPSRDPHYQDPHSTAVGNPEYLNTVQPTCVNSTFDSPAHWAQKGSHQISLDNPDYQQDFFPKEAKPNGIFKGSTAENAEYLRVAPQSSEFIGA
SMILES,IC50 [1] [nM],IC50 [2] [nM],GI50 [3] [nM],also measured
CC(=O)Nc1ccc2ncnc(Nc3ccc(OCc4ccccn4)c(Cl)c3)c2c1,3,16,2700,IC50 [4]: Not Active; IC50 [5]: Not Active; IC50 [6]: Not Active; IC50 [7]: Not Active; IC50 [8]: Not Active; IC50 [9]: Not Active; IC50 [10]: 1220 nM; IC50 [11]: Not Active; IC50 [12]: Not Active; IC50 [13]: > 100000 nM
CCNC(=O)Nc1ccc2ncnc(Nc3ccc(Oc4cccc(C(F)(F)F)c4)c(Cl)c3)c2c1,29,625,3550,
CCNC(=O)Nc1ccc2ncnc(Nc3ccc(Oc4ccc(Cl)c(Cl)c4)c(Cl)c3)c2c1,> 10000,> 10000,> 10000,
CCNC(=O)Nc1ccc2ncnc(Nc3ccc(OCc4cccc(F)c4)c(Cl)c3)c2c1,35,126,1820,IC50 [13]: > 100000 nM
CCNC(=O)Nc1ccc2ncnc(Nc3ccc(OCc4ccccn4)c(Cl)c3)c2c1,227,1390,1950,IC50 [13]: > 100000 nM
CCOC(=O)C(=CNc1ccc2ncnc(Nc3ccc(Oc4cccc(C(F)(F)F)c4)c(Cl)c3)c2c1)C(=O)OCC,23,1000,,
CCOC(=O)C(=CNc1ccc2ncnc(Nc3ccc(Oc4ccc(Cl)c(Cl)c4)c(Cl)c3)c2c1)C(=O)OCC,> 10000,> 10000,,
N#CC(C#N)=CNc1ccc2ncnc(Nc3ccc(Oc4ccc(Cl)c(Cl)c4)c(Cl)c3)c2c1,> 10000,> 10000,,
N#CC(C#N)=CNc1ccc2ncnc(Nc3ccc(OCc4cccc(F)c4)c(Cl)c3)c2c1,445,2720,,
CCNC(=O)Nc1ccc(C(=O)Nc2ccc3ncnc(Nc4ccc(F)c(Cl)c4)c3c2)cc1,31,855,,
CS(=O)(=O)CCNCc1ccc(-c2ccc3ncnc(Nc4ccc(OCc5cccc(F)c5)c(Cl)c4)c3c2)o1 [LAPATINIB],,,930,

# Continued by falling IC50 [1], values first:
IC50 [1] [nM],IC50 [2] [nM],SMILES,GI50 [3] [nM],also measured
3050,8000,N#CC(C#N)=CNc1ccc2ncnc(Nc3ccc(OCc4ccccn4)c(Cl)c3)c2c1,,
1460,> 10000,CCOC(=O)C(=CNC(=O)Nc1ccc(C(=O)Nc2ccc3ncnc(Nc4ccc(F)c(Cl)c4)c3c2)cc1)C(=O)OCC,,
1020,3290,CCOC(=O)C(=CNc1ccc2ncnc(Nc3ccc(OCc4ccccn4)c(Cl)c3)c2c1)C(=O)OCC,,
812,5050,CCOC(=O)C(=CNc1ccc2ncnc(Nc3ccc(OCc4cccc(F)c4)c(Cl)c3)c2c1)C(=O)OCC,,
543,706,NC(=O)Nc1ccc2ncnc(Nc3ccc(Oc4ccc(Cl)c(Cl)c4)c(Cl)c3)c2c1,2380,
99,287,NC(=O)Nc1ccc2ncnc(Nc3ccc(OCc4cccc(F)c4)c(Cl)c3)c2c1,4720,
9,275,NC(=O)Nc1ccc(C(=O)Nc2ccc3ncnc(Nc4ccc(F)c(Cl)c4)c3c2)cc1,,
4,77,NC(=O)Nc1ccc2ncnc(Nc3ccc(Oc4cccc(C(F)(F)F)c4)c(Cl)c3)c2c1,> 10000,
